Among the data in patent US5594006A, “Carbostyril derivatives as matrix metalloproteinases inhibitors” (Otsuka Pharmaceutical Co., Ltd., priority 1993, dated 1997) are IC50 values, retold here.

For one assay, the target named is T1, Interstitial collagenase (Homo sapiens, UniProt P03956).
T1 construct: endogenous in cells; host or cells: Detroit 551 (human fibroblasts), culture supernatant, purified
T1 sequence (P03956 100-469): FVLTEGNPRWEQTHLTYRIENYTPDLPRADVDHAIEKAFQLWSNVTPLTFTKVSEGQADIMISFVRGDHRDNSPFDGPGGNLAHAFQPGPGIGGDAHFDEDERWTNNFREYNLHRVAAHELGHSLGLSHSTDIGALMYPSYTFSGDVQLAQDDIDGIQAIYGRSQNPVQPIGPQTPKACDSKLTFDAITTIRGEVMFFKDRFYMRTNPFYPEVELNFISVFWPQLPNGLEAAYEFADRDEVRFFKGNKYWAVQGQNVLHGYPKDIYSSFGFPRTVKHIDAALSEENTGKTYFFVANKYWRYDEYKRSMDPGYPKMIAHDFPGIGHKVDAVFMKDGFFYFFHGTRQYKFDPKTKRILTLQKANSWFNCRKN
Nature of the assay: Interstitial collagenase inhibiting activity (fluorescence labeled collagen). In kind it is biochemical. The conditions noted are these: from human fibroblast cell (Detroit 551); 2 hours at 35° C., pH 7.5. The protocol: (2) Measuring Method of Interstitial Collagenase Inhibiting Activity
Inhibiting of interstitial collagenase refined from the culture supernatant of human fibroblast cell (Detroit 551 cell) was measured by using fluorescence labeled collagen, according to the method proposed by Nagai et al. [Inflammation, 4 (2), 123 (1984)].
The enzyme was activated by incubating for 3 hours at 37° C. in 1 mM mercury (II) p-aminophenylacetate. The test compound was used by dissolving in dimethyl sulfoxide. The enzyme reaction was started by adding the activated enzyme in 50 mM TRIS-hydrochloric acid (pH 7.5), 0.2M NaCl, 5 mM CaCl2, 0.02% (w/v) NaN3, 2.5 mM acetic acid, and 0.1% (v/v) dimethyl sulfoxide solution containing the test compound and 0.025% (w/v) of fluorescence labeled collagen as substrate. The reaction was conducted for 2 hours at 35° C., and stopped by adding ice-chilled 80 mM O-phenanthroline, 50% (v/v) ethanol solution by 1/20 amount. To this, moreover, an equivalent volume of 50 mM TRIS-hydrochloric acid (pH 7.5), 0.2M NaCl, 5 mM CaCl2, 0.02% (w/v) NaN3 solution was added to incubate further for 1 hour at 35° C. to degenerate specifically only the digestion product, and the digestion product was extracted by adding 0.17M TRIS-hydrochloric acid (pH 9.5), 0.67M NaCl solution including an equivalent amount of 70% (v/v) ethanol, and afterwards, by centrifugal separation for 15 minutes at 3000 rpm, 4° C., the undigested substrate was precipitated. The fluorescence intensity of the obtained supernatant was measured at 520 nm (Em)/495 nm (Ex), and the decomposition volume was quantitatively determined.
(§1) The enzyme inhibiting activity was expressed by the concentration (IC50) of the test compound wherein the enzyme activity of known amount was inhibited till 50%.

Another assay addresses T2, Stromelysin (Mus musculus, UniProt P28862).
T2 construct: endogenous in cells; host or cells: Colon 26 (mouse colon cancer cells), culture supernatant, purified
Nature of the assay: Stromelysin inhibiting activity (fluorescence labeled casein). The class given is biochemical. The conditions noted are these: from mouse colon cancer cell (Colon 26); 3 hours at 37° C., pH 7.5. The protocol: (1) Measuring Method of Stromelysin Inhibiting Activity
Inhibiting of Stromelysin refined from the culture supernatant of mouse colon cancer cell (Colon 26 cell) was measured by using fluorescence labeled casein, according to the method proposed by Miyazaki et al. (J. Biochem., 108, 537-543, 1990), and S. S. Twining [Fed. Proc., 42, 1951 (1984)].
The enzyme was activated by incubating for 2 hours at 37° C. in 1 mM mercury (II) p-aminophenylacetate. The test compound was used by dissolving in dimethyl sulfoxide. The enzyme reaction was started by adding the activated enzyme in a solution of 50 mM TRIS-hydrochloric acid (pH 7.5), 10 mM CaCl2, and 0.1% (v/v) dimethyl sulfoxide containing the test compound and 0.25% (w/v) of fluorescence labeled casein as substrate. The reaction was conducted for 3 hours at 37° C., and stopped by adding an equivalent amount of 5% (w/v) trichloroacetic acid solution. Afterwards, by centrifugal separation for 15 minutes at 3000 rpm, 4° C., the undigested substrate was precipitated, and to 1 part by volume of the obtained supernatant, 4 parts by volume of 0.3M phosphate buffer (pH 8.5) was added, and the fluorescence intensity was measured at 520 nm (Em)/495 nm (Ex), and the decomposition volume was quantitatively determined.
as §1

T2 sequence (P28862 100-477): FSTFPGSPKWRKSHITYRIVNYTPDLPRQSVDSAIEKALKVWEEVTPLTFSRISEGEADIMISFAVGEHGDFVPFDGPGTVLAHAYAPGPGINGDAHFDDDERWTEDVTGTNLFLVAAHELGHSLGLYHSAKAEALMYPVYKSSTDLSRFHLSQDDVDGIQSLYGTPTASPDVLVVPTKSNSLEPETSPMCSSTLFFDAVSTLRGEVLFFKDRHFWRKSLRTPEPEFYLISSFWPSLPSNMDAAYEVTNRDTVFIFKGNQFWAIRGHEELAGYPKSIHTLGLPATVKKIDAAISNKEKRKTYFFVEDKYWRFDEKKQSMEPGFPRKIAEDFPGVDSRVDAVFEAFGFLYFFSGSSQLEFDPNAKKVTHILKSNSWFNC

One may read the IC50 as the midpoint of a concentration-inhibition curve. The low end stands for inhibition by little substance, the high end for a need for much substance. For the compound `CCOC(=O)CN1C(=O)[C@@H](NC(=O)[C@@H](CC(=O)NO)CC(C)C)Cc2ccccc21` [Test compound 8, 1-ethoxycarbonylmethyl-3S-[4-(N-hydroxyamino)-2R-isobutylsuccinyl]amino-3,4-dihydrocarbostyril], the IC50 at Interstitial collagenase stood at 160 nM; at Stromelysin, 380 nM.
As to `CON1C(=O)[C@@H](NC(=O)[C@H](CC(C)C)[C@H](C)C(=O)NO)Cc2ccccc21` [Test compound 9, 3S-[4-(N-hydroxyamino)-2R-isobutyl-3S-methylsuccinyl]amino-1-methoxy-3,4-dihydrocarbostyril], the half-inhibitory concentration (IC50) at Interstitial collagenase was determined as 22 nM; on Stromelysin, 36 nM.
The matching figures for `CC(C)C[C@H](CC(=O)NO)C(=O)N[C@H]1Cc2ccccc2N(CC(N)=O)C1=O` [Test compound 10, 1-aminocarbonylmethyl-3S-[4-(N-hydroxyamino)-2R-isobutylsuccinyl]amino-3,4-dihydrocarbostyril]: 31 nM and 200 nM.
The matching figures for `COC(=O)c1ccc(CN2C(=O)[C@@H](NC(=O)[C@@H](CC(=O)NO)CC(C)C)Cc3ccccc32)cc1` [Test compound 11, 3S-[4-(N-hydroxyamino)-2R-isobutylsuccinyl]amino-1-(4-methoxycarbonylbenzyl)-3,4-dihydrocarbostyril]: 750 nM and 290 nM.
Consider `CCN1C(=O)[C@@H](NC(=O)[C@@H](CC(=O)NO)CC(C)C)Cc2ccccc21` [Test compound 12, 1-ethyl-3S-[4-(N-hydroxyamino)-2R-isobutylsuccinyl]amino-3,4-dihydrocarbostyril], for which the values for the concentration for half-maximal inhibition (IC50) against Interstitial collagenase and against Stromelysin were 290 nM and 700 nM, respectively.
The matching figures for `C=CCN1C(=O)[C@@H](NC(=O)[C@H](CC(C)C)[C@H](C)C(=O)NO)Cc2ccccc21` [Test compound 13, 1-allyl-3S-[4-(N-hydroxyamino)-2R-isobutyl-3S-methylsuccinyl]amino-3,4-dihydrocarbostyril]: 10 nM and 28 nM.
The matching figures for `COCN1C(=O)[C@@H](NC(=O)[C@@H](CC(=O)NO)CC(C)C)Cc2ccccc21` [Test compound 14, 3S-[4-(N-hydroxyamino)-2R-isobutylsuccinyl]amino-1-methoxymethyl-3,4-dihydrocarbostyril]: 22 nM and 37 nM.
The compound `C#CCN1C(=O)[C@@H](NC(=O)[C@H](CC(C)C)[C@H](C)C(=O)NO)Cc2ccccc21` [Test compound 15, 3S-[4-(N-hydroxyamino)-2R-isobutyl-3S-methylsuccinyl]amino-1-(2-propynyl)-3,4-dihydrocarbostyril] displayed an IC50 on Interstitial collagenase of 20 nM.
Compound `CC(C)C[C@@H](C(=O)N[C@H]1Cc2ccccc2N(CC(=O)O)C1=O)[C@H](C)C(=O)NO` [Test compound 16, 1-carboxymethyl-3S-[4-(N-hydroxyamino)-2R-isobutyl-3S-methylsuccinyl]amino-3,4-dihydrocarbostyril] displayed a 50% inhibitory concentration (IC50) at Interstitial collagenase of 69 nM.
On the same count and under the same terms, the value for `CCON1C(=O)[C@@H](NC(=O)[C@@H](CC(=O)NO)CC(C)C)Cc2ccccc21` [Test compound 17, 1-ethoxy-3S-[4-(N-hydroxyamino)-2R-isobutylsuccinyl]amino-3,4-dihydrocarbostyril] was 41 nM.
Take `COCCOCN1C(=O)[C@@H](NC(=O)[C@@H](CC(=O)NO)CC(C)C)Cc2ccccc21` [Test compound 18, 3S-[4-(N-hydroxyamino)-2R-isobutylsuccinyl]amino-1-methoxyethoxymethyl-3,4-dihydrocarbostyril]: the IC50 against Interstitial collagenase was 88 nM.
On the same count and under the same terms, the value for `CCCCCCC[C@H](CC(=O)NO)C(=O)N[C@H]1Cc2ccccc2N(OC)C1=O` [Test compound 20, 3S-[4-(N-hydroxyamino)-2R-heptylsuccinyl]amino-1-methoxy-3,4-dihydrocarbostyril] was 220 nM.
On the same count and under the same terms, the value for `COCCN1C(=O)[C@@H](NC(=O)[C@@H](CC(=O)NO)CC(C)C)Cc2ccccc21` [Test compound 21, 3S-[4-(N-hydroxyamino)-2R-isobutylsuccinyl]amino-1-methoxyethyl-3,4-dihydrocarbostyril] was 110 nM; that for `CCOCC[C@H](CC(=O)NO)C(=O)N[C@H]1Cc2ccccc2N(OC)C1=O` [Test compound 22, 3S-[4-(N-hydroxyamino)-2R-ethoxyethylsuccinyl]amino-1-methoxy-3,4-dihydrocarbostyril] was 3700 nM; that for `CON1C(=O)[C@@H](NC(=O)[C@H](CC(C)C)C(Cc2ccc3c(c2)OCO3)C(=O)NO)Cc2ccccc21` (stereo partly drawn) [Test compound 23, 3S-[4-(N-hydroxyamino)-2R-isobutyl-3-(3,4-methylenedioxybenzyl)succinyl]amino-1-methoxy-3,4-dihydrocarbostyril] was 0.064 nM.
`COCCN1C(=O)[C@@H](NC(=O)[C@@H](CC(=O)NO)CC(C)C)Cc2cc3c(cc21)OCO3` [Test compound 24, 3S-[4-(N-hydroxyamino)-2R-isobutylsuccinyl]amino-1-methoxyethyl-6,7-methylenedioxy-3,4-dihydrocarbostyril]: at Interstitial collagenase, half-maximal inhibition (IC50) was put at 740 nM.
On Interstitial collagenase, `COCCN1C(=O)[C@H](NC(=O)[C@@H](CC(=O)NO)CC(C)C)Cc2cc3c(cc21)OCO3` [Test compound 25, 3R-[4-(N-hydroxyamino)-2R-isobutylsuccinyl]amino-1-methoxyethyl-6,7-methylenedioxy-3,4-dihydrocarbostyril] yielded an IC50 of 4100 nM.
Same read-out and setting: as for `COCCN1C(=O)C(NC(=O)[C@@H](CC(=O)NO)CC(C)C)Cc2cc3c(cc21)OCO3` (stereo partly drawn) [Test compound 26, 3-[4-(N-hydroxyamino)-2R-isobutylsuccinyl]amino-1-methoxyethyl-6,7-methylendioxy-3,4-dihydrocarbostyril], the figure is 1000 nM; as for `CCN1C(=O)[C@@H](NC(=O)[C@@H](CC(=O)NO)CC(C)C)Cc2cc3c(cc21)OCO3` [Test compound 28, 1-ethyl-3S-[4-(N-hydroxyamino)-2R-isobutylsuccinyl]amino-6,7-methylenedioxy-3,4-dihydrocarbostyril], 87 nM.
With `CCCCC[C@H](CC(=O)NO)C(=O)N[C@H]1Cc2ccccc2N(OC)C1=O` [Test compound 30, 3S-[4-(N-hydroxyamino)-2R-pentylsuccinyl]amino-1-methoxy-3,4-dihydrocarbostyril], it took 11 nM to reach half-maximal inhibition at Interstitial collagenase (IC50).
`COCON1C(=O)[C@@H](NC(=O)[C@@H](CC(=O)NO)CC(C)C)Cc2ccccc21` [Test compound 31, 3S-[4-(N-hydroxyamino)-2R-isobutylsuccinyl]amino-1-methoxymethoxy-3,4-dihydrocarbostyril] came in with an IC50 against Interstitial collagenase of 370 nM.
